Experimental data published in US9700499B2, “Antimicrobial compositions” (GIVAUDAN SA, priority 2005, dated 2017).
Entries after “also recorded” stand apart in the source; their conditions may differ.

What was measured:
Type in all cases: cell-based
[1] = system: Aspergillus niger ATCC 16404 spores; test: Sporicidal effect of test compounds in water; details: for Reduction factor / Spores/ml: 0.1% test compound in water; for Reduction factor: after 7 days, count of negative control divided by count of test compound; for Spores/ml: spore count after 7 days; for Sporicidal effect (reduction of spore counts) in water: test compound alone in water at 0.1%
Description: Aspergillus niger ATCC 16404 spores are added to water to obtain a density of 3×10^5 spores/ml. In order to prepare the spores, the test strain is grown for 5 days on potato dextrose agar at room temperature. The spores are harvested with a solution containing 0.1% Tween 80, peptone 0.1% and NaCl 0.85% and the spore concentration is adjusted to the density indicated above.
Test compounds are dissolved in dipropyleneglycol to a concentration of 20%.
These stock solutions are added to 10 ml aliquots of the spore suspension to obtain a final concentration of the test compounds of 0.1%. The sporicidal effect is shown by a reduction of spore counts after 7 days.
The reduction factor is determined as follows. Aliquots of the above prepared suspension of microorganisms (here: spore suspension prepared as described above) are plated on a suitable agar medium (see above) and the developing colonies are counted both for samples with test compound and for a negative probe (water). The count of the negative control is divided by the count of the test compound and thereby the reduction factor is determined. A negative control (water) accordingly has a reduction factor of 1 (no effect on the microorganism).

[2] = system: Aspergillus niger ATCC 16404 spores; test: Sporicidal effect of test compounds and preservatives in a cosmetic cream; details: for Enhancing effect in the cosmetic cream in presence of phenoxyethanol: 0.2% test compound with phenoxyethanol; for Enhancing activity in cream: 0.1% test compound with phenoxyethanol, complete killing of spores within 7 days
Description: A cosmetic cream (pH 5.5) for application to the human skin is formulated as follows (in % w/w): […]
Glyceryl-monostearate, Sweet almond oil, Cetyl-stearyl-alcohol and Glyceryl dilaurate are melted at 80° C. Xanthan gum is dispersed into glycerine. Arginine is dissolved in water and heated to 75° C. The Xanthan gum-glycerin suspension is added to the heated water phase, the heated oil phase is added and the suspension is stirred at 300 rpm for 10 min whilst being cooled down slowly. Finally, a homogeneous emulsion is made with a high speed homogenizer at 5000 rpm.
Test samples of cream contain different amounts of preservatives and/or preservative enhancer. The preservative and preservative enhancer is added to an aliquot of 10 g of the cream in 50 ml tubes to a concentration (w/w) of 0.1-0.5% as shown in the table below. After addition of the preservative/preservative enhancer, the cream is thoroughly mixed to achieve a homogeneous distribution.
After 1-3 days of equilibration of the cream (storage at room temperature to achieve a homogenous partitioning of compounds between oil and water phase), to each sample 100 μl of a spore suspension of Aspergillus niger ATCC 16404 containing 3×10^7 spores/ml (prepared as described in example 1) is added. After regular test intervals, samples of 1 g cream are removed and added to 20 ml of a neutralizer solution containing 0.2% lecithin, 2% Tween 80 and 0.5% NaCl. These dilutions are vigorously shaken for 10 min until the cream is dissolved, and then aliquots of this solution are spread plated on potato dextrose agar containing 0.2% Tween 80. After 48 h to 72 h the number of surviving colony forming units (and therefore surviving spores) are counted.
The sporidical effect in cream (prepared as described in example 2) is compared when using the test compounds alone or in combination with phenoxyethanol, benzyl alcohol or 2-Phenylethanol.
The experiments described in example 2-4 are performed with varying concentrations of test compound and preservative as indicated in Table 5.

[3] = system: Staphylococcus aureus (DSMZ 799) and Pseudomonas aeruginosa (ATCC 15442); test: Activity against bacteria in cosmetic cream (mixed inoculum 1:1)
Description: As test organisms Staphylococcus aureus (DSMZ 799) and Pseudomonas aeruginosa (ATCC 15442) are used. The strains are grown overnight in Mueller-Hinton broth and adjusted to a cell density of 1×10^8 cfu (colony forming units) per ml.
The two bacterial strains are mixed in a ratio of 1:1 and 100 μl of this mixed inoculum is added to 10 ml aliquots of the cosmetic cream supplemented with test compounds as described in Example 2 in the concentration as indicated in the table below.
The resulting mixtures are incubated at room temperature and at the regular intervals samples are removed, suspended in neutralizer solution and diluted as described above (example 2).
Aliquots of these suspended and diluted samples are plated on tryptic soy agar supplemented with 0.5% Tween 80 and then incubated for 24 h at 37° C. Surviving bacteria are counted.

[4] = system: Candida albicans ATCC 10231, Candida guilliermondii ATCC 6260 and Candida parapsilosis ATCC 22019; test: Activity against yeasts in cosmetic cream (mixture of three yeast strains 1:1:1)
Description: The same procedure as described above except for the changes mentioned below is performed with a mixture of the three yeast strains Candida albicans ATCC 10231, Candida guilliermondii ATCC 6260 and Candida parapsilosis ATCC 22019 that replace the bacterial strains.
The yeast strains are grown in Sabouraud liquid medium, washed and suspended in saline and adjusted to 5×10^7 cfu (colony forming units) per ml. The Inoculum of the three strains is then pooled in a ratio of 1:1:1. For determining the reduction factor by counting of the colonies formed, the samples inoculated with the yeast strains are spread plated on potato dextrose, incubated until colonies have formed and counted.

[5] = 0.2% test compound and 0.5% phenoxyethanol (Table 2)
[6] = 0.2% test compound and 0.5% phenoxyethanol, 7 d (Table 2)
[7] = test compound (0.1% where given) with Phenoxyethanol 0.5% (Table 3)
[8] = test compound (0.1% where given) with Phenoxyethanol 0.5%, 7 d (Table 3)
[9] = test compound alone (0.1% where given), no preservative (Table 3)
[10] = test compound alone (0.1% where given), no preservative, 7 d (Table 3)
[11] = test compound 0.1% alone, no preservative
[12] = test compound 0.1% with 2-Phenylethanol 0.5%
[13] = test compound 0.1% with Phenoxyethanol 0.5%
[14] = 0.1% test compound and 0.5% phenoxyethanol (Table 2)
[15] = 0.1% test compound and 0.5% phenoxyethanol, 7 d (Table 2)

CC(C)c1ccc(CO)cc1 [Cuminic alcohol, reference compound]
Reduction factor [1]: <2 | Spores/ml [1]: >1.2 × 10^5 Spores/ml

C=CCCCCCCCCO [9-decen-1-ol, reference compound]
Spores/ml after 7 d [2, 5]: 2.44 × 10^4 Spores/ml | Reduction factor [2, 6]: 2.1 | Enhancing effect in the cosmetic cream in presence of phenoxyethanol [2]: do not show an enhancing effect | Reduction factor [1]: 23 | Spores/ml [1]: 1.1 × 10^4 Spores/ml | Sporicidal effect (reduction of spore counts) in water [1]: significant sporicidal effect

COc1cc(O)ccc1C=O [4-hydroxy-2-methoxy-benzaldehyde]
Spores/ml after 7 d [2, 7]: <100 Spores/ml | Reduction factor [2, 8]: >1040 | Spores/ml after 7 d [2, 9]: 2.08 × 10^4 Spores/ml | Reduction factor [2, 10]: 5

O=Cc1ccc(O)cc1 [4-hydroxybenzaldehyde]
Bacteria (cfu/g cream) 24 h [3, 11]: 3.8 × 10^3 cfu/g cream | Bacteria (cfu/g cream) 7 d [3, 11]: 1.28 × 10^4 cfu/g cream | Bacteria (cfu/g cream) 24 h [3, 12]: 1 × 10^3 cfu/g cream | Bacteria (cfu/g cream) 7 d [3, 12]: <200 cfu/g cream | Bacteria (cfu/g cream) 24 h [3, 13]: 1.9 × 10^4 cfu/g cream | Bacteria (cfu/g cream) 7 d [3, 13]: <200 cfu/g cream | Spores/ml after 7 d [2, 14]: <100 Spores/ml | Reduction factor [2, 15]: >737 | Enhancing activity in cream [2]: excellent enhancing activity | Reduction factor A. niger, 7 d ([2]; test compound 0.05% w/w with preservative (phenoxyethanol) 0.5% w/w (Table 5)): 66 | Reduction factor A. niger, 7 d ([2]; test compound 0.1% w/w with preservative (phenoxyethanol) 0.3% w/w (Table 5)): 295 | Reduction factor A. niger, 7 d ([2]; test compound 0.1% w/w with preservative (phenoxyethanol) 0.5% w/w (Table 5)): >1180 | Reduction factor A. niger, 7 d ([2]; test compound 0.1% w/w, preservative 0 (Table 5)): 2 | Spores/ml after 7 d ([2]; test compound 0.1% with 2-Phenylethanol 0.25% + benzylalcohol 0.25%): <100 Spores/ml | Reduction factor ([2]; test compound 0.1% with 2-Phenylethanol 0.25% + benzylalcohol 0.25%, 7 d): >1040 | Spores/ml after 7 d [2, 12]: <100 Spores/ml | Spores/ml after 7 d ([2]; test compound 0.1% with 2-Phenylethanol 0.5% + benzylalcohol 0.5%): <100 Spores/ml | Reduction factor ([2]; test compound 0.1% with 2-Phenylethanol 0.5% + benzylalcohol 0.5%, 7 d): >1040 | Reduction factor ([2]; test compound 0.1% with 2-Phenylethanol 0.5%, 7 d): >1040 | Spores/ml after 7 d [2, 7]: <100 Spores/ml | Reduction factor [2, 8]: >1040 | Spores/ml after 7 d [2, 9]: 1.0 × 10^5 Spores/ml | Reduction factor [2, 10]: 1.04 | Enhancing effect of the test compound in presence of the preservative compound (phenoxyethanol) ([2]; varying concentrations (Table 5)): enhancing effect | Yeasts (cfu/g cream) 48 h [4, 11]: 7.4 × 10^3 cfu/g cream | Yeasts (cfu/g cream) 7 d [4, 11]: 2.2 × 10^5 cfu/g cream | Yeasts (cfu/g cream) 48 h [4, 12]: <200 cfu/g cream | Yeasts (cfu/g cream) 7 d [4, 12]: <200 cfu/g cream | Yeasts (cfu/g cream) 48 h [4, 13]: <200 cfu/g cream | Yeasts (cfu/g cream) 7 d [4, 13]: <200 cfu/g cream | Reduction factor [1]: <2 | Spores/ml [1]: >1.2 × 10^5 Spores/ml | Sporicidal effect (reduction of spore counts) in water [1]: no significant sporicidal effect; also recorded: No significant reduction of spore counts

OCCc1ccccc1 [2-Phenylethanol, reference compound]
Spores/ml after 7 d ([2]; preservative 0.5% alone, no test compound (Table 3)): 4.2 × 10^4 Spores/ml | Reduction factor ([2]; preservative 0.5% alone, no test compound, 7 d (Table 3)): 2.5

COc1cccc(C=O)c1 [3-methoxybenzaldehyde]
Spores/ml after 7 d [2, 14]: <100 Spores/ml | Reduction factor [2, 15]: >737

O=Cc1cc(O)cc(O)c1 [3,5-dihydroxybenzaldehyde]
Spores/ml after 7 d [2, 7]: <100 Spores/ml | Reduction factor [2, 8]: >1040 | Spores/ml after 7 d [2, 9]: 1 × 10^4 Spores/ml | Reduction factor [2, 10]: 10

COc1ccc(C=O)cc1 [4-methoxybenzaldehyde]
Spores/ml after 7 d [2, 14]: <100 Spores/ml | Reduction factor [2, 15]: >737 | Enhancing activity in cream [2]: excellent enhancing activity | Spores/ml after 7 d [2, 5]: <100 Spores/ml | Reduction factor [2, 6]: >737 | Spores/ml after 7 d [2, 7]: <100 Spores/ml | Reduction factor [2, 8]: >1040 | Spores/ml after 7 d [2, 9]: 2.8 × 10^3 Spores/ml | Reduction factor [2, 10]: 37.1 | Reduction factor [1]: 5 | Spores/ml [1]: 4.68 × 10^4 Spores/ml | Sporicidal effect (reduction of spore counts) in water [1]: No significant reduction of spore counts | Sporicidal effect (reduction of spore counts) in water ([1]; listed as 4-methoxy-benzaldehyde): no significant sporicidal effect

O=Cc1ccccc1 [Benzaldehyde, reference compound]
Spores/ml after 7 d [2, 14]: <100 Spores/ml | Reduction factor [2, 15]: >737

O=Cc1ccc2c(c1)OCO2 [Heliotropine]
Spores/ml after 7 d [2, 14]: <100 Spores/ml | Reduction factor [2, 15]: >737

Cc1ccc(C=O)cc1 [4-methylbenzaldehyde]
Spores/ml after 7 d [2, 14]: <100 Spores/ml | Reduction factor [2, 15]: >737

COc1cc(C=O)ccc1O [Vanilline]
Spores/ml after 7 d [2, 14]: <100 Spores/ml | Reduction factor [2, 15]: >737 | Spores/ml after 7 d [2, 7]: <100 Spores/ml | Reduction factor [2, 8]: >1040 | Spores/ml after 7 d [2, 9]: 1 × 10^4 Spores/ml | Reduction factor [2, 10]: 10.4

CC(CC=O)CCc1ccccc1 (centres unmarked) [Mefranal, 3-methyl-5-phenylpentanal, reference compound]
Spores/ml after 7 d [2, 5]: 3.12 × 10^4 Spores/ml | Reduction factor [2, 6]: 1.6 | Enhancing effect in the cosmetic cream in presence of phenoxyethanol [2]: do not show an enhancing effect | Reduction factor [1]: 63 | Spores/ml [1]: 4 × 10^3 Spores/ml | Sporicidal effect (reduction of spore counts) in water [1]: significant sporicidal effect

O=Cc1cccc(O)c1 [3-hydroxybenzaldehyde]
Spores/ml after 7 d [2, 14]: <100 Spores/ml | Reduction factor [2, 15]: >737
